Data published in patent US20170196296A1, “Amphoteric Metal Compound-Treated Substrate And Methods For Reduction Of Body Odor Using Treated Substrates” (priority 2016, published 2017).

Assay: solubility of copper hydroxide in ammonia solutions
Assay type: physicochemical
Source text: If the substrate is desirably a keratin-based material, then the substrate is selected from materials such as wool or hair (such as alpaca hair), and the AMH compound is preferably copper hydroxide (Cu[OH]2), which can be dissolved in an ammonia solution, resulting in an aqua ammonia solution of Schweizer's reagent, Cu[NH3]4[H2O]2][OH]2. […] Standard aqua ammonia (25%) saturates at only about 3% copper hydroxide W/W, and the concentrated ammonia solution is hazardous to breathe. However, the ammonia in the aqua ammonia+copper hydroxide solution can be mostly substituted with harmless ingredients. For example, a wool substrate can be soaked in an aqueous solution which is composed of only 3% ammonia, 4% W/W of ammonium chloride and 10% W/W of sodium carbonate will also dissolve 3% copper hydroxide, and after drying, the ammonium chloride and sodium carbonate can be rinsed away. A wool substrate thus treated will retain as much copper hydroxide as a substrate treated in solution of 3% copper hydroxide (saturated solution) in aqua ammonia (25% ammonia). Upon being soaked in either formula of 3% copper hydroxide solution, the surface of the wool immediately absorbs the copper hydroxide. Excess solution is squeezed out of the substrate material, and the substrate is allowed to dry. […]

[OH][Cu][OH] [Cu(OH)2, copper(ii) hydroxide]
amount dissolved in aqueous ammonia/ammonium chloride/sodium carbonate solution (3% ammonia, 4% W/W ammonium chloride, 10% W/W sodium carbonate): 3%
saturation concentration in standard aqua ammonia (aqua ammonia (25%)): about 3 % W/W
